Here are results for one compound from patent US10517842B2, “Methods of modulating miRNA levels and compositions for use in the same” (Los Angeles Biomedical Research Institute at Harbor-UCLA …, priority 2017, dated 2019).

One test has as its system caspase 3/7. The test is described as follows: Caspase-3/7 activity assay (Apo-One) in LSMC. Type of test: cell-based, human. The conditions noted are these: Tranilast 200 μM, 48 hrs. As for the experimental part:
LSMC were cultured in 96-well plates as mentioned above and at sub-confluence were treated with 200 μM Tranilast for 48 hrs. The caspase 3/7 activity was determined using the Apo-One homogeneous caspase-3/7 assay (Promega, Madison, Wis.) after the indicated time periods according to the manufacturer's protocol. The Apo-One caspase-3/7 reagent was added in a 1:1 ratio with the medium, and the rate of caspase-3/7 activity was determined by measuring the fluorescence using a multi-plate reader (Molecular Devices, Inc., Sunnyvale, Calif.) at an excitation of 485 nm and an emission of 527 nm.

The next test relates to miR-29c promoter. The experiment in a line: Methylation-specific PCR in LSMC. The note with it: Tranilast 200 μM, 24 hrs, Me/Me+Un, P<0.05. Type of test: cell-based, human. As for the experimental part: (§1) LSMC at sub-confluence were treated with Tranilast (200 μM) for 24 hrs and genomic DNA was extracted and treated with bisulfite (EZ DNA Methylation Kit, Zymo Research Corporation, Irvine, Calif.). Since methylated cytosine residues remained unchanged after bisulfite conversion, this approach allows distinguishing DNA sequences which are methylated or unmethylated in specific genomic regions using sequence-specific PCR primers (Li & Dahiya, “MethPrimer: designing primers for methylation PCRs,” Bioinformatics (2002)18:1427-31). The pair of primers used to detect the methylated (Me) sequence of miR-29c promoter were 5′-[…]-3′ (SEQ ID NO:17) and 5′-[…]-3′ (SEQ ID NO:18) and for the unmethylated (Un) sequence of miR-29c promoter were 5′-[…]-3′ (SEQ ID NO:19) and 5′-[…]-3′ (SEQ ID NO:20). The pair of primers used to detect the methylated (Me) sequence of miR-200c promoter were 5′-[…]-3′ (SEQ ID NO:21) and 5′-[…]-3′ (SEQ ID NO:22), and for the unmethylated (Un) sequence of miR-200c promoter were 5′-[…]-3′ (SEQ ID NO:23) and 5′-[…]-3′ (SEQ ID NO:24). DNA amplification was carried out following manufacturer's protocol (HotStarTaq Plus PCR reagent, Qiagen, Valencia, Calif.). The PCR condition was 5 min at 95° C., followed by 40 cycles of amplification at 94° C. for 30 seconds, 30 seconds at 55° C., and 1 min at 72° C. […]

The next test deals with miR-200c promoter. The test is described as follows: Methylation-specific PCR in LSMC. Type of test: cell-based, human. The note with it: Tranilast 200 μM, 24 hrs, Me/Me+Un, P<0.05. As for the experimental part:
as §1

For a further test, the system named is COL1. The experiment in a line: Quantitative RT-PCR, mRNA expression in LSMC. Type of test: cell-based, human. The note with it: Tranilast 200 μM vs DMSO, 12 h to 48 h, P<0.05. As for the experimental part: (§2) Total RNA was extracted from LSMC using RNAzol (GeneCopoeia, Rockville, Md.) and their quantity and quality was determined (ND-1000 Spectrophotometer, NanoDrop Technologies, Wilmington, Del.) as previously described (Chuang & Khorram, “miR-200c Regulates IL8 Expression by Targeting IKBKB: A Potential Mediator of Inflammation in Leiomyoma Pathogenesis,” PloS one (2014) 9:e95370). For medium miRNA extraction, 5 pg of synthetic miR-1 from Caenorhabditis elegans (cel-miR-1) was added as a spike-in control for purification efficiency. Subsequently, 2 μg or 10 ng (for miRNA) was reverse transcribed using random primers for CCND1, CDK2, COL1A1, COL3A1, TGF-β3, DNMT1 and EZH2 or specific primers for miR-29c and miR-200c according to the manufacturer's guidelines (Applied Biosystems, Carlsbad, Calif.). Quantitative RT-PCR was carried out using SYBR gene expression master mix or TaqMan miRNA expression assays (Applied Biosystems). Reactions were incubated for 10 min at 95° C. followed by 40 cycles for 15 seconds at 95° C. and 1 min at 60° C. The level of mRNAs and expression of cellular and secreted miRNA was determined using the Invitrogen StepOne System with 18S, RNU6B and cel-miR-1 used for normalization respectively. All reactions were run in triplicate and relative expression was analyzed with the comparative cycle threshold method (2^−ΔΔCT) according to the manufacturer (Applied Biosystems). Values were expressed as fold change compared to the control group.

The next test concerns DNMT1. The experiment in a line: Quantitative RT-PCR, mRNA expression in LSMC. The note with it: Tranilast 200 μM vs DMSO, 12 h to 48 h, P<0.05. Type of test: cell-based, human. As for the experimental part: as §2
In test [1] the test system is NF-Kb (p65) binding elements in the miR-200c promoter. The experiment in a line: CHIP assay, p65 binding in the miR-200c promoter in LSMC. Type of test: cell-based, human. The note with it: Tranilast 200 μM, 48 hrs, percent input method.
Test [2] deals with 3′UTR of COL3A1 in lung cancer cell line A549. The test is described as follows: 3′UTR luciferase reporter assay in A549. Type of test: cell-based. The note with it: Tranilast. For orientation: Reporter assays use an easily measured gene product as a stand-in for the process of interest.
The next test has as its system 3′UTR of COL3A1. The test is described as follows: 3′UTR luciferase reporter assay in LSMC. Type of test: cell-based, human. The conditions noted are these: Tranilast 200 μM vs DMSO set as 1, 48 hrs before and 48 hrs after transfection, LSMC; P<0.05. As for the experimental part:
LSMC were seeded at 3.5×10^4 cells/well in 6-well plates and at sub-confluence were treated with Tranilast (200 μM) or DMSO as control for 48 hrs. Tranilast and DMSO-treated cells were then transfected with luciferase reporter plasmids (1 μg/well) containing 3′ UTR sequences for COL3A1 or CDK2 (GeneCopoeia, Inc., Rockville, Md.) using PureFection transfection reagent (System Biosciences, Inc., Palo Alto, Calif.). After 48 hrs of transfection Firefly and Renilla luciferase activities were measured using the Dual-Luciferase Reporter Assay System (Promega). Firefly luciferase activity was normalized to Renilla luciferase activity. The level of induction was reported as mean±SEM of three experiments and compared with a ratio in cells treated with DMSO independently set as 1.
FIG. 10A: The relative luciferase activity in LSMC treated with Tranilast (200 μM) or DMSO as control for 48 hrs prior to transfection with Renilla and Firefly luciferase reporter plasmids carrying a 3′UTR fragment of COL3A1, CDK2 or IL8 and incubated with Tranilast (200 μM) or DMSO containing medium after transfection for another 48 hrs. The relative luciferase activity is presented as the ratio of Firefly:Renilla as compared to DMSO which was independently set as 1. The results are presented as mean±SEM of at least three sets of independent experiments using LSMC isolated from 3 patients. FIG. 10B: Protein expression of COL3A1 and CDK2 was determined after transfection of anti-miR scrambled oligonucleotides (aNC) or anti-miR-29c oligonucleotides (a29c) in LSMC for 72 hrs with DMSO or Tranilast (200 μM) treatment for the last 48 hrs. GAPDH was used as loading control. The result is one representative of at least three sets of independent experiments using LSMC isolated from 3 patients. FIG. 10C: The bar graph presented the relative band densities as mean±SEM of at least three independent experiments. Inhibition of protein expression by Tranilast treatment was calculated relative to changes in corresponding DMSO controls in cells transfected with aNC or anti-miR-29c.

Regarding `COc1ccc(C=CC(=O)Nc2ccccc2C(=O)O)cc1OC` [Tranilast, 2-[[3-(3,4-dimethoxyphenyl)-1-oxo-2-propenyl]amino]benzoic acid], in the test with caspase 3/7, the “Caspase 3/7 activity” value was “without a significant effect”. Besides, in the test on miR-29c promoter, the “methylation status in miR-29c promoter” value is recorded as “significantly suppressed”. Further, the “methylation status in miR-200c promoter” value with miR-200c promoter is listed as “significantly suppressed”. The “COL1 expression, mRNA level” value with COL1 is “significantly inhibited”. Also, the “DNMT1 expression, mRNA level” value with DNMT1 was “significantly inhibited”. Also, in test [1], the “p65 binding ability in miR-200c promoter” value is listed as “decreased”. Further, the “activity of luciferase reporter containing 3′UTR of COL3A1” value in test [2] is on record as “Inhibits”. Also, the “3′UTR activity of COL3A1 (relative luciferase activity, Firefly:Renilla)” value in the test with 3′UTR of COL3A1 was “suppressed”.
